Measurements from paper PMC12190736, “Development and In Vitro Characterization of [^3H]GMC-058 as Radioligand for Imaging Parkinsonian-Related Proteinopathies” (Cells, 2025).
Marks after values point to notes of the source that are not given here.

Experiments:
[1] = target: AD, PSP, CBD, MSA-P, PD and control brain homogenates; test: Saturation binding assays with [^3H]GMC-058 in brain homogenates
Description: For AD, CBD, PSP, and CT cases, the frozen tissue blocks were prepared as described by Stehouwer et al. [13]. In brief, tissue blocks were thawed and homogenized in ice-cold pH 7.0 phosphate-buffered saline (PBS) at 300 mg/mL on ice using a glass homogenizer, diluted 30-fold with PBS to 10 mg/mL, and homogenized a second time with a Brinkmann Polytron homogenizer before storage at −80 °C.
After incubation, samples were filtered under vacuum on equilibrated GF/B UniFilter plates (PerkinElmer) using the FilterMate 196 (PerkinElmer). Afterwards, filters were washed three times with 250 μL chilled buffer (PBS + 20% EtOH). [^3H]GMC-058 binding was measured with a beta scintillation counter (PerkinElmer). The saturation data was fitted and analyzed using the non-linear regression function of GraphPad Prism 10 software to calculate the dissociation constant (KD) and maximum number of binding sites (Bmax). Scatchard plots were prepared with GraphPad Prism 10 software to display the saturation binding data.

[2] = test system: tissue microarrays (TMAs) from cases with different proteinopathies; test: Autoradiography and emulsion autoradiography on tissue microarrays; type: binding, human
Description: Tissue micro-arrays (TMAs), prepared from paraffin-embedded tissue from human post-mortem tissue as described in [14], were first de-paraffinized with two 1 h and one overnight incubation in Neo-Clear Xylene Substitute (Sigma-Aldrich, St. Louis, MO, USA) at 37 °C and then […] in three short incubations at RT with decreasing concentrations of ethanol before autoradiography with [^3H]GMC-058 was performed as described above. For the saturation binding autoradiography, duplicate slides of each TMA set were incubated with 0.3 nM to 200 nM [^3H]GMC-058. Adjacent sections were co-incubated with 5 μM of unlabeled GMC-044 to calculate NSB. The quantification of total and non-specific binding was performed via delineation of the ROIs on the whole core, except for MSA, where the ROI followed the areas in which the binding of [^3H]GMC-058 corresponded to areas with α-syn inclusions. Those cores that had imperfections or were incomplete were not included in the analysis, or only the area of remaining tissue that adhered to the glass slide was delineated. For the cores from the substantia nigra of PD patient cases, the cores selected for analysis were those containing α-syn inclusion, but no A-β deposits of pTau tangles. The information was collected from IHC analysis of adjacent TMA slides.
For high-resolution emulsion autoradiography, an autoradiography experiment with TMAs using 25 nM [^3H]GMC-058 was performed as described above. At the end of the 90 h exposure to the storage phosphor screen, slides were stored in a vacuum until dipping in a photoemulsion. In the dark, using a sodium lamp, Agar Scientific, AGP9284 type NTB emulsion was melted in a heated water bath and diluted (1:1) with ddH2O. The emulsion was poured into dipping chambers, and the slides were dipped and placed vertically to air-dry. When completely dry, the slides were placed in a light-tight slide box with desiccant and exposed at 4 C for 1–12 weeks. After exposure, the slides were developed in diluted Phenisol Developer for 2 min, rinsed in water, and fixed in hypam Fixer at 17 °C in a water bath. After rinsing in water, the slides were counterstained with Harris HTX, dehydrated in graded ethanol, cleared in Xylene, and mounted in Pertex. Images were taken using a 3D Histech P250 III scanner (3DHISTECH Kft. Hungary) at up to 15 focal layers with a distance of 0.2 μm.

Kd ([1]; AD brain homogenates): 0.0054 µM
Kd ([1]; CBD brain homogenates): > 0.05 µM
Saturation binding ([1]; PD tissue): No evidence of saturation binding
Kd ([1]; PSP brain homogenates): > 0.05 µM
Kd ([1]; control brain homogenates): > 0.1 µM
Specific binding, mean ([2]; 25 nM, TMAs, AD): 127 ** fmol/mg tissue equivalent
Specific binding, mean ([2]; 25 nM, TMAs, CAA): 131 ** fmol/mg tissue equivalent
Specific binding, mean ([2]; 25 nM, TMAs, CBD): 204 *** fmol/mg tissue equivalent
Specific binding, mean ([2]; 25 nM, TMAs, MSA): 166 ** fmol/mg tissue equivalent
Displaceable (off-target) binding, mean ([2]; 25 nM, TMAs, NDE (non-dementia elderly controls)): 70 fmol/mg tissue equivalent
Specific binding, mean ([2]; 25 nM, TMAs, PD): 129 *** fmol/mg tissue equivalent
Specific binding, mean ([2]; 25 nM, TMAs, PSP): 173 *** fmol/mg tissue equivalent
Displaceable (off-target) binding, mean ([2]; 25 nM, TMAs, liver control): 57 fmol/mg tissue equivalent
SMILES: [3H]c1cc(N2CCN(c3ccc(NC(=O)C(C)(C)C)cc3)CC2)ccc1OC [[^3H]GMC-058, N-(4-(4-(4-methoxy-[3-3H]phenyl)piperazin-1-yl)phenyl)pivalamide]
Saturation binding autoradiography ([2]; 0.3 nM to 200 nM, TMAs): specific binding did not reach saturation in any of the tissues
Specific binding versus displaceable binding in controls ([2]; 25 nM, PD, MSA, CAA, AD, PSP and CBD, p < 0.01): significantly higher than the displaceable binding in controls
Co-localization of binding (high-resolution autoradiography) ([2]; 25 nM, TMAs): co-localized with α-syn inclusions in PD and MSA, with dense Aβ plaques in CAA and AD, and with p-tau inclusions in PSP and CBD
